Assay results published in patent US7741327B2 (Hoffmann-La Roche Inc., priority 2008, dated 2010).

target: T1, Recombinant human liver GK1 (GST-GK) (Homo sapiens, UniProt P35557); assay: In vitro glucokinase activity (G6PDH-coupled NADH assay); type: biochemical; details: 30° C., 5 mM D-glucose, 10% DMSO
T1 construct: made in house; host or cells: E. coli
T1 sequence (P35557 1-466 isoform P35557-2): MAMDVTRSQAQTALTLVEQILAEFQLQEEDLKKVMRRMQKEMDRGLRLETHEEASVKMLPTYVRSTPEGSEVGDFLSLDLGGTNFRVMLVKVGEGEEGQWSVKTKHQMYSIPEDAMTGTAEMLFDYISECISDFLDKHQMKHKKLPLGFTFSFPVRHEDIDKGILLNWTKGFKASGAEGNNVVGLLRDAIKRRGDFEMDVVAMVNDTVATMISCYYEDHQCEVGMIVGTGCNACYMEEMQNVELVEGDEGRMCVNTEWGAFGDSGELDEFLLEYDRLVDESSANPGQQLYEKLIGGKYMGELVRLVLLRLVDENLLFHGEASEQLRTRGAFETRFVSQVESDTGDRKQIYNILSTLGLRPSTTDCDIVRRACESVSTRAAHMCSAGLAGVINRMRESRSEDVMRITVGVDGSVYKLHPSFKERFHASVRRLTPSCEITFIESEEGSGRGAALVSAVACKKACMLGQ
How it was run: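 Activation measured as the rate of OD340 rise from G6PDH-coupled NADH production, relative to 10% DMSO control, reported as SC1.5 (concentration for 50% activity increase). Conditions: 30° C, pH 7.1 Hepes, 5 mM glucose, 1 mM ATP, purified recombinant GST-human GK1, compound preincubated 10 min before enzyme addition.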

Point of comparison: CCOc1ccc(F)c(OC2=CC(=O)N([C@@H](CC3CCOCC3)C(=O)Nc3ccn(CC(C)(C)O)n3)C2)c1F (single isomer, unassigned) [Example 257], “SC1.5 (concentration of activator that produced a 50% increase in the activity of GK)” value 0.006 µM. Against it:
- CC(C)C[C@@H](C(=O)Nc1ccn(C[C@@H]2COC(C)(C)O2)n1)N1CC(Oc2cccc(N(C)C)c2F)=CC1=O [Example 139, (S)-2-[4-(3-Dimethylamino-2-fluoro-phenoxy)-2-oxo-2,5-dihydro-pyrrol-1-yl]-4-methyl-pentanoic acid [1-((R)-2,2-dimethyl-[1,3]dioxolan-4-yl-methyl)-1H-pyrazol-3-yl]-amide] — 130-fold higher, 0.796 µM
- CCOc1ccccc1OC1=CC(=O)N([C@@H](CC(C)C)C(=O)Nc2ccn(CCO)n2)C1.Cl [Example 85, (S)-2-[4-(2-Ethoxy-phenoxy)-2-oxo-2,5-dihydro-pyrrol-1-yl]-4-methyl-pentanoic acid [1-(2-hydroxy-ethyl)-1H-pyrazol-3-yl]-amide Hydrochloride] — 330-fold higher, 1.998 µM
- CC(C)(O)Cn1ccc(NC(=O)[C@H](CC2CCCCC2)N2CC(Oc3c(F)cccc3Cl)=CC2=O)n1 [Example 67, (S)-2-[4-(2-Chloro-6-fluoro-phenoxy)-2-oxo-2,5-dihydro-pyrrol-1-yl]-3-cyclohexyl-N-[1-(2-hydroxy-2-methyl-propyl)-1H-pyrazol-3-yl]-propionamide] — 4.7-fold higher, 0.028 µM
- CCO[C@H](C)C[C@@H](C(=O)Nc1ccn(CC(C)(C)O)n1)N1CC(Oc2cccc(Cl)c2Cl)=CC1=O [Example 94, (2S,4R)-2-[4-(2,3-Dichloro-phenoxy)-2-oxo-2,5-dihydro-pyrrol-1-yl]-4-ethoxy-pentanoic acid [1-(2-hydroxy-2-methyl-propyl)-1H-pyrazol-3-yl]-amide] — 130-fold higher, 0.772 µM
- COC(=O)c1ccc(NC(=O)[C@H](CC2CCCCC2)N2CC(Oc3c(F)cccc3F)=CC2=O)nc1 [Example 39, 6-{(S)-3-Cyclohexyl-2-[4-(2,6-difluoro-phenoxy)-2-oxo-2,5-dihydro-pyrrol-1-yl]-propionylamino}-nicotinic acid methyl ester] — 4.2-fold higher, 0.025 µM
- O=C(O)c1ccc(NC(=O)[C@H](CC2CCCCC2)N2CC(Oc3c(F)cccc3Cl)=CC2=O)nc1 [Example 70, 6-{(S)-2-[4-(2-Chloro-6-fluoro-phenoxy)-2-oxo-2,5-dihydro-pyrrol-1-yl]-3-cyclohexyl-propionylamino}-nicotinic acid] — 8-fold higher, 0.048 µM
- CC[C@H](C)CC(C(=O)Nc1ccn(C[C@@H]2COC(C)(C)O2)n1)N1CC(Oc2ccccc2Cl)=CC1=O (mixture of isomers) [Example 248, (S)-2-[4-(2-Chloro-phenoxy)-2-oxo-2,5-dihydro-pyrrol-1-yl]-4-methyl-hexanoic acid [1-((R)-2,2-dimethyl-[1,3]dioxolan-4-ylmethyl)-1H-pyrazol-3-yl]-amide] — 51-fold higher, 0.304 µM
- COC(=O)c1ccc(NC(=O)[C@H](CC2CCCCC2)N2CC(Oc3c(F)ccc(Cl)c3F)=CC2=O)nc1 [Example 73, 6-{(S)-2-[4-(3-Chloro-2,6-difluoro-phenoxy)-2-oxo-2,5-dihydro-pyrrol-1-yl]-3-cyclohexyl-propionylamino}-nicotinic acid methyl ester] — 6-fold higher, 0.036 µM
- CSCC[C@@H](C(=O)Nc1ccn(C[C@@H](O)CO)n1)N1CC(Oc2ccccc2Cl)=CC1=O [Example 223, (S)-2-[4-(2-Chloro-phenoxy)-2-oxo-2,5-dihydro-pyrrol-1-yl]-N-[1-((R)-2,3-dihydroxy-propyl)-1H-pyrazol-3-yl]-4-methylsulfanyl-butyramide] — 50-fold higher, 0.303 µM
- CCO[C@@H](C)C[C@@H](C(=O)Nc1ccn(CC(C)(C)O)n1)N1CC(Oc2cccc(Cl)c2Cl)=CC1=O [Example 95, (2S,4S)-2-[4-(2,3-Dichloro-phenoxy)-2-oxo-2,5-dihydro-pyrrol-1-yl]-4-ethoxy-pentanoic acid [1-(2-hydroxy-2-methyl-propyl)-1H-pyrazol-3-yl]-amide] — 120-fold higher, 0.703 µM
- O=C(Nc1ccn(C[C@H](O)CO)n1)[C@H](CC1CCCCC1)N1CC(Oc2c(F)cccc2F)=CC1=O [Example 37, (S)-3-Cyclohexyl-2-[4-(2,6-difluoro-phenoxy)-2-oxo-2,5-dihydro-pyrrol-1-yl]-N-[1-((S)-2,3-dihydroxy-propyl)-1H-pyrazol-3-yl]-propionamide] — 6-fold higher, 0.036 µM
- CC1(C)OC[C@@H](Cn2ccc(NC(=O)[C@H](Cc3ccccc3F)N3CC(Oc4ccccc4Cl)=CC3=O)n2)O1 [Example 182, (S)-2-[4-(2-chloro-phenoxy)-2-oxo-2,5-dihydro-pyrrol-1-yl]-N-[1-((R)-2,2-dimethyl-[1,3]dioxolan-4-yl-methyl)-1H-pyrazol-3-yl]-3-(2-fluoro-phenyl)-propionamide] — 83-fold higher, 0.496 µM
- COc1cccc(OC2=CC(=O)N([C@@H](CC3CCCCC3)C(=O)Nc3ccn(C[C@@H](O)CO)n3)C2)c1 [Example 164, (S)-3-Cyclohexyl-N-[1-((R)-2,3-dihydroxy-propyl)-1H-pyrazol-3-yl]-2-[4-(3-methoxy-phenoxy)-2-oxo-2,5-dihydro-pyrrol-1-yl]-propionamide] — 2-fold higher, 0.012 µM
- CC(C)C[C@@H](C(=O)Nc1cnccn1)N1CC(Oc2ccc(CC(C)(C)O)cc2)=CC1=O [Example 245, (S)-2-{4-[4-(2-Hydroxy-2-methyl-propyl)-phenoxy]-2-oxo-2,5-dihydro-pyrrol-1-yl}-4-methyl-pentanoic acid pyrazin-2-ylamide] — 610-fold higher, 3.668 µM
- CC(C)NC1=CC(=O)N([C@@H](CC2CCCCC2)C(=O)Nc2ccn(CC(C)(C)O)n2)C1 [Example 232, (S)-3-cyclohexyl-N-[1-(2-hydroxy-2-methyl-propyl)-1H-pyrazol-3-yl]-2-(4-isopropylamino-2-oxo-2,5-dihydro-pyrrol-1-yl)-propionamide] — 2000-fold higher, 12.232 µM
- CCOc1cccc(OC2=CC(=O)N([C@@H](CC(C)C)C(=O)Nc3ccn(CC(C)(C)O)n3)C2)c1F [Example 114, (S)-2-[4-(3-Ethoxy-2-fluoro-phenoxy)-2-oxo-2,5-dihydro-pyrrol-1-yl]-4-methyl-pentanoic acid [1-(2-hydroxy-2-methyl-propyl)-1H-pyrazol-3-yl]-amide] — 3.3-fold higher, 0.02 µM
- CC(C)(O)Cn1ccc(NC(=O)[C@H](CC2CCCCC2)N2CC(Nc3ccc(Cl)c(Cl)c3)=CC2=O)n1 [Example 231, (S)-3-Cyclohexyl-2-[4-(3,4-dichloro-phenylamino)-2-oxo-2,5-dihydro-pyrrol-1-yl]-N-[1-(2-hydroxy-2-methyl-propyl)-1H-pyrazol-3-yl]-propionamide] — 990-fold higher, 5.931 µM
- CC(CC(C(=O)Nc1ccn(CC(C)(C)O)n1)N1CC(Oc2ccccc2Cl)=CC1=O)C(F)(F)F (stereo not shown) [Example 226, 2-[4-(2-Chloro-phenoxy)-2-oxo-2,5-dihydro-pyrrol-1-yl]-5,5,5-trifluoro-4-methyl-pentanoic acid [1-(2-hydroxy-2-methyl-propyl)-1H-pyrazol-3-yl]-amide] — 160-fold higher, 0.944 µM
- O=C(Nc1ccn(C[C@@H](O)CO)n1)[C@H](Cc1ccccc1F)N1CC(Oc2ccccc2Cl)=CC1=O [Example 183, (S)-2-[4-(2-chloro-phenoxy)-2-oxo-2,5-dihydro-pyrrol-1-yl]-N-[1-((R)-2,3-dihydroxy-propyl)-1H-pyrazol-3-yl]-3-(2-fluorophenyl)-propionamide] — 54-fold higher, 0.325 µM
- Cl.O=C(Nc1cnccn1)[C@H](CC1CCCCC1)N1CC(Oc2c(F)cccc2Cl)=CC1=O [Example 71, (S)-2-[4-(2-Chloro-6-fluoro-phenoxy)-2-oxo-2,5-dihydro-pyrrol-1-yl]-3-cyclohexyl-N-pyrazin-2-yl-propionamide Hydrochloride] — 9.7-fold higher, 0.058 µM

CC(C)(O)Cn1ccc(NC(=O)C(Cc2c(Cl)cccc2Cl)N2CC(Oc3c(F)cccc3F)=CC2=O)n1 (stereo not shown) [Example 225, 3-(2,6-Dichloro-phenyl)-2-[4-(2,6-difluoro-phenoxy)-2-oxo-2,5-dihydro-pyrrol-1-yl]-N-[1-(2-hydroxy-2-methyl-propyl)-1H-pyrazol-3-yl]-propionamide] was tested, and the “SC1.5 (concentration of activator that produced a 50% increase in the activity of GK)” value was over 30 µM.
CC(C)C[C@@H](C(=O)Nc1nc(N(C)C)ns1)N1CC(Oc2ccccc2Cl)=CC1=O [Example 108, (S)-2-[4-(2-Chloro-phenoxy)-2-oxo-2,5-dihydro-pyrrol-1-yl]-4-methyl-pentanoic acid (3-dimethylamino-[1,2,4]thiadiazol-5-yl)-amide] was tested, and the “SC1.5 (concentration of activator that produced a 50% increase in the activity of GK)” value was over 30 µM.

same assay, conditions: at 30 μM test compound

Point of comparison: CC(C)C[C@@H](C(=O)Nc1nc(N(C)C)ns1)N1CC(Oc2ccccc2Cl)=CC1=O [Example 108, (S)-2-[4-(2-Chloro-phenoxy)-2-oxo-2,5-dihydro-pyrrol-1-yl]-4-methyl-pentanoic acid (3-dimethylamino-[1,2,4]thiadiazol-5-yl)-amide], “fold act. @ 30 μM” value 1.4 fold. Against it:
- CC(C)(O)Cn1ccc(NC(=O)C(Cc2c(Cl)cccc2Cl)N2CC(Oc3c(F)cccc3F)=CC2=O)n1 (stereo not shown) [Example 225, 3-(2,6-Dichloro-phenyl)-2-[4-(2,6-difluoro-phenoxy)-2-oxo-2,5-dihydro-pyrrol-1-yl]-N-[1-(2-hydroxy-2-methyl-propyl)-1H-pyrazol-3-yl]-propionamide] — the same, 1.4 fold
